In patent publication US20100047762A1, “METHOD TO MONITOR DRUG EFFICACY IN DIABETIC PATIENTS USING AN ASSAY FOR 1,5-ANHYDRO-D-GLUCITOL” (NIPPON KAYAKU KABUSHIKI KAISHA, priority 2007, published 2010):

What was measured:
[1] = tested on: patients with type I diabetes (T1DM); assay: Post-hoc analysis of randomized, double-blind, placebo-controlled study of pramlintide in T1DM subjects on intensive insulin therapy (baseline HbA1c≦8%); assay type: in vivo, human
Method: 1,5-AG was assessed as a marker of post-prandial blood glucose (PPG) control in pramlintide-treated patients with type I diabetes (TIDM). PPG is the glucose that appears in the blood stream and tissues after a meal. PPG predominates in the serum over average fasting glucose at HbA1c's less than 8.5%. Antihyperglycemic drugs affect PPG.
Post-hoc analysis of a randomized, double-blind, placebo-controlled study of a subset of subjects with T1DM on intensive insulin therapy with a baseline HbA1c≦8% (N=37, age 40±12 y; HbA1c 7.5±0.3%; weight 85.9±20.8 kg; mean±SD) treated with pramlintide (30/60 μg) or placebo with major meals.
• HbA1c, weight, and insulin dose measured at scheduled visits • Pre-prandial and post-prandial self-monitored blood glucose (SMBG) daily • Plasma 1,5-AG (GlycoMark assay) measured at baseline and week 29
• All evaluable subjects with a baseline HbA1c≦8% and 1,5-AG measured at baseline and week 29 • Mean (±SE) change from baseline HbA1c, body weight, PPG, insulin use and 1,5-AG at week 29 • A repeated measures analysis across all study visits was performed comparing pramlintide and placebo groups

[2] = following a meal; cited from earlier work

## CC[C@H](C)[C@H](NC(=O)[C@@H]1CCCN1C(=O)CNC(=O)[C@H](Cc1ccccc1)NC(=O)[C@H](CC(N)=O)NC(=O)[C@H](CC(N)=O)NC(=O)[C@H](CO)NC(=O)[C@H](CO)NC(=O)[C@H](Cc1c[nH]cn1)NC(=O)[C@@H](NC(=O)[C@H](CC(C)C)NC(=O)[C@H](Cc1ccccc1)NC(=O)[C@H](CC(N)=O)NC(=O)[C@H](C)NC(=O)[C@H](CC(C)C)NC(=O)[C@H](CCCNC(=N)N)NC(=O)[C@H](CCC(N)=O)NC(=O)[C@@H](NC(=O)[C@H](C)NC(=O)[C@@H]1CSSC[C@H](NC(=O)[C@@H](N)CCCCN)C(=O)N[C@@H](CC(N)=O)C(=O)N[C@@H]([C@@H](C)O)C(=O)N[C@@H](C)C(=O)N[C@@H]([C@@H](C)O)C(=O)N1)[C@@H](C)O)C(C)C)C(=O)N[C@@H](CC(C)C)C(=O)N1CCC[C@H]1C(=O)N1CCC[C@H]1C(=O)N[C@H](C(=O)N[C@@H](CC(N)=O)C(=O)N[C@H](C(=O)NCC(=O)N[C@@H](CO)C(=O)N[C@@H](CC(N)=O)C(=O)N[C@H](C(=O)N[C@@H](Cc1ccc(O)cc1)C(N)=O)[C@@H](C)O)C(C)C)[C@@H](C)O [Pramlintide, L-Lysyl-L-cysteinyl-L-asparaginyl-L-threonyl-L-alanyl-L-threonyl-L-cysteinyl-L-alanyl-L-threonyl-L-glutaminyl-L-arginyl-L-leucyl-L-alanyl-L-asparaginyl-L-phenylalanyl-L-leucyl-L-valyl-L-histidyl-L-seryl-L-seryl-L-asparaginyl-L-phenylalanyl-glycyl-L-protyl-L-isoleucyl-L-leucyl-L-protyl-L-threonyl-L-asparaginyl-L-valyl-L-glycyl-L-seryl-L-prollneamylin (human) acetate hydrate]
[1]; 4 weeks
  Body Weight, % Change from baseline: −0.7%
  Body Weight, Mean: 84.2 kg
  HbA1c, % Change from baseline: −7.4%
  PPG, % Change from baseline: −18.9%
  PPG, Mean: 143 mg/dL
[1]; 4 weeks, n = 18
  HbA1c, Mean: 7.0%
[1]; 4 weeks, pramlintide 30/60 μg with major meals
  Plasma 1,5-AG, % Change from baseline: 15.9%
[1]; 4 weeks, pramlintide 30/60 μg with major meals, n = 18
  Plasma 1,5-AG, Mean: 6.4 µg/mL
[1]; 16 weeks
  Body Weight, % Change from baseline: −2.8%
  Body Weight, Mean: 82.5 kg
  HbA1c, % Change from baseline: −7.0%
  PPG, % Change from baseline: −16.8%
  PPG, Mean: 145 mg/dL
  Plasma 1,5-AG, % Change from baseline: 23.4%
[1]; 16 weeks, n = 16
  HbA1c, Mean: 7.2%
[1]; 16 weeks, n = 17
  Plasma 1,5-AG, Mean: 7 µg/mL
[1]; 29 weeks
  Body Weight, % Change from baseline: −2.2%
  Body Weight, Mean: 83.0 kg
  HbA1c, % Change from baseline: −4.5%
  PPG, % Change from baseline: −27.2%
  PPG, Mean: 135 mg/dL
  Plasma 1,5-AG, % Change from baseline: 29.8%
[1]; 29 weeks of treatment
  most common adverse event associated with pramlintide use: mild to moderate nausea
[1]; 29 weeks, n = 18
  HbA1c, Mean: 7.4%
  Plasma 1,5-AG, Mean: 6.9 µg/mL
[1]; baseline to wk 29, mean±SE, P<0.01 vs placebo
  fasting plasma 1,5-AG levels, relative change from baseline: +30±16%
[1]; baseline to wk 29, mean±SE, P<0.05 vs placebo
  fasting plasma 1,5-AG levels, absolute change from baseline: +0.96±0.91 μg/mL
[1]; week 29, pramlintide-treated subjects
  mealtime insulin use: significantly decreased
[1]; week 29, n=18, mean±SE, P<0.001 vs placebo
  2 hr PPG excursions, change from baseline: -43.9 ± 10.9 mg/dL
[1]; week 29, n=18, mean±SE, P<0.01 vs placebo
  body weight, change from baseline: -2.0 ± 1.2 kg
[1]; week 29, n=18, mean±SE, similar to placebo
  HbA1c, change from baseline: −0.18±0.31%
[2]
  duration of the slowing of gastric emptying following Pramlintide administration: approximately 3 hours
